Measurements published in publication PMC4698308, “A new amino acid substitution (Ala-205-Phe) in acetolactate synthase (ALS) confers broad spectrum resistance to ALS-inhibiting herbicides” (Planta, 2015).

Tests used:
[1] = system: annual bluegrass (Poa annua L.); test: Whole plant non-target site resistance experiment with P450 inhibitors malathion or PBO (control 21 days after treatment); type: in vivo; conditions: for Annual bluegrass control S: susceptible (S)
Description: Additional experiments were conducted during March–April 2015 to determine if non-target site based mechanisms conferred resistance to ALS inhibitors in our annual bluegrass population, POAAN-R3. Plants (RP6, RP7, and S) were cultured in plastic conical containers as previously described and allowed to acclimate to the glasshouse for 18 days prior to initiating two experiments.
In the first experiment, resistant (RP6, RP7) and susceptible (S) plants were treated with foramsulfuron at 29 g ha^−1, trifloxysulfuron (Monument. Syngenta Professional Products. Greensboro, NC, USA) at 27.8 g ha^−1, imazaquin (Image. BASF Corporation. Research Triangle Park, NC) at 27.5 g ha^−1, or bispyribac-sodium (Velocity. Valent USA Corporation. Walnut Creek, CA, USA) at 70 g ha^−1. All herbicides were applied alone or in combination with either malathion (Spectrum Group. St. Louis, MO, USA) at 1000 g ha^−1 or piperonyl butoxide (Sigma Aldrich. St. Louis, MO, USA) at 2100 g ha^−1. Malathion and piperonyl butoxide (PBO) inhibit cytochrome P450 monooxygenases involved in metabolism of ALS inhibiting herbicides and are commonly used at the application rates tested herein to evaluate non-target site based resistance mechanisms in weeds (Burnet et al. [1994]; Christopher et al. [1992]; Yu and Powles [2014b]; Rao et al. [1995]). All herbicides were mixed in water carrier and included non-ionic surfactant at 0.25 % v/v. Malathion and PBO were mixed with methanol and de-ionized water (50:50) and applied 60 min prior to herbicide application using a previously described enclosed spray chamber on 13 February 2015.
Annual bluegrass control was visually assessed on a 0 (i.e., no control) to 100 % (i.e., complete kill) scale relative to the non-treated 21 days after treatment. After all control data had been collected, aboveground biomass was harvested from each plastic conical container at the soil line using scissors, dried at 100 °C, and weighed. Treatments were arranged as a 3 × 5 × 3 factorial with three plant selections (RP6, RP7, S), five herbicides (foramsulfuron, trifloxysulfuron, imazaquin, bispyribac-sodium, non-treated) and three P450 inhibitor treatments (malathion, PBO, non-treated) in a completely randomized design with four replications and repeated in separate glasshouses during February 2015.

[2] = system: annual bluegrass (Poa annua L.); test: Whole plant confirmation of target-site resistance (visual control and dry biomass 28 days after treatment); type: in vivo
Description: Progeny of all POAAN-R3 plants subjected to genetic sequencing (RP1–RP8) were surface seeded into separate 10.2 × 10.2 cm greenhouse pots (Dillen Products/Myers Industries, Inc. Middlefield, OH, USA.) filled with a peat moss growing medium (ProMix BX Mycorrhizae. Premier Tech Horticulture, Quakertown, PA, USA) on 5 January 2015. The susceptible annual bluegrass population (S) included in our sequencing analysis was also seeded in the same fashion.
After seeding, pots were placed inside a growth chamber (Conviron A1000. Controlled Environments Inc, Hendersonville, NC) configured to provide 14 h day at 19 °C and a 10 h night at 10 °C. Light intensity inside the chamber averaged 296 μmol m^−2 s^−1. Irrigation was applied to each pot daily using distilled water and a misting nozzle. Annual bluegrass emergence was first noted on 16 January 2015. Plants remained inside the growth chamber until 26 January 2015. On this date, seedlings of each plant (RP1–RP8, S) were transplanted into individual 164 cm^3 plastic conical containers (SC10 Super Cell Cone-tainer. Stuewe and Sons. Tangent, OR 97389) filled with Sequatchie silt loam (fine-loamy, siliceous, semiactive, thermic humic Hapludult) measuring 6.2 in soil pH and 2.1 % in organic matter content. Transplants were replicated such that 32 plastic conical containers were created for each annual bluegrass plant analyzed in previous experiments (RP1–RP8, S). Immediately after transplanting, plastic conical containers were placed in a glasshouse located at the University of Tennessee (Knoxville, TN, USA; 35.56, 83.56). Peak light intensity in this glasshouse averaged 714 μmol m^−2 s^−1 with day/night temperatures averaging 27/17 °C. Irrigation was applied daily using an overhead misting system and plants were not clipped prior to initiating this study.
Plants were allowed to acclimate to this glasshouse environment for 10 days prior to being treated with foramsulfuron (Revolver. Bayer Environmental Sciences. Research Triangle Park, NC, USA) at 29 g ha^−1, imazamox (Clearcast. BASF Corporation. Research Triangle Park, NC) at 140 g ha^−1, or simazine (Princep 4L. Syngenta Professional Products. Greensboro, NC) at 1120 g ha^−1. Per label recommendations, imazamox and simazine treatments included a non-ionic surfactant (Activator-90. Loveland Products Inc. Greeley, CO, USA) at 0.25 % v/v. All treatments were applied in an enclosed spray chamber (Generation III track sprayer. DeVries Manufacturing, Hollandale, MN, USA) using a water carrier at 215 L ha^−1 through an 8004 EVS nozzle (TeeJet, Technologies, Spraying Systems Co., Glendale Heights, IL, USA). These herbicide treatments were selected to confirm results of genetic sequencing that RP1–RP8 were resistant to sulfonylurea, imidazolinone, and photosystem II inhibiting herbicides. A non-treated control treatment was included with each resistant (RP1–RP8) and susceptible (S) plant for comparison. Herbicides were applied on 5 February 2015 when plants were at a two-to-three leaf stage, prior to annual bluegrass tiller formation.
Annual bluegrass control was visually assessed on a 0 (i.e., no control) to 100 % (i.e., complete kill) scale relative to the non-treated 28 days after treatment. After all control data had been collected, aboveground biomass was harvested from each plastic conical container at the soil line using scissors, dried at 100 °C for 3 days, and weighed.
Treatments were arranged as a 9 × 4 factorial with nine plant selections (i.e., RP1–RP8, S) and four herbicide treatments (i.e., foramsulfuron, imazamox, simazine, non-treated) in a completely randomized design with four replications and repeated in time and space during February 2015. Plants were the same age during both experimental runs.

## COc1cc(OC)nc(NC(=O)NS(=O)(=O)c2cc(NC=O)ccc2C(=O)N(C)C)n1 [Foramsulfuron]
[1]; RP6, herbicide alone, foramsulfuron 29, trifloxysulfuron 27.8, imazaquin 27.5, bispyribac-sodium 70 g ha^−1
  Annual bluegrass control RP6: 58%
[1]; RP6, herbicide with PBO 2100 g ha^−1 applied 60 min prior
  Annual bluegrass control RP6: 31%
[1]; RP6, herbicide with malathion 1000 g ha^−1 applied 60 min prior
  Annual bluegrass control RP6: 24%
[1]; RP7, herbicide alone, foramsulfuron 29, trifloxysulfuron 27.8, imazaquin 27.5, bispyribac-sodium 70 g ha^−1
  Annual bluegrass control RP7: 28%
[1]; RP7, herbicide with PBO 2100 g ha^−1 applied 60 min prior
  Annual bluegrass control RP7: 24%
[1]; RP7, herbicide with malathion 1000 g ha^−1 applied 60 min prior
  Annual bluegrass control RP7: 22%
[1]; herbicide alone, foramsulfuron 29, trifloxysulfuron 27.8, imazaquin 27.5, bispyribac-sodium 70 g ha^−1
  Annual bluegrass control S: 91%
[1]; herbicide with PBO 2100 g ha^−1 applied 60 min prior
  Annual bluegrass control S: 95%
[1]; herbicide with malathion 1000 g ha^−1 applied 60 min prior
  Annual bluegrass control S: 96%
[2]; 28 days after treatment, summary over RP1–RP5, RP7, RP8
  annual bluegrass control, resistant plants with the exception of RP6: ≤ 11%
[2]; RP1, aboveground dry biomass 28 days after treatment, foramsulfuron 29, imazamox 140, simazine 1120 g ha^-1
  Annual bluegrass biomass RP1: 60 % of nontreated control
[2]; RP1 plants, 28 days after treatment, 2 to 3 leaf stage, foramsulfuron 29, imazamox 140, simazine 1120 g ha^−1
  Annual bluegrass control RP1: 8%
[2]; RP2, aboveground dry biomass 28 days after treatment, foramsulfuron 29, imazamox 140, simazine 1120 g ha^-1
  Annual bluegrass biomass RP2: 45 % of nontreated control
[2]; RP2 plants, 28 days after treatment, 2 to 3 leaf stage, foramsulfuron 29, imazamox 140, simazine 1120 g ha^−1
  Annual bluegrass control RP2: 11%
[2]; RP3, aboveground dry biomass 28 days after treatment, foramsulfuron 29, imazamox 140, simazine 1120 g ha^-1
  Annual bluegrass biomass RP3: 48 % of nontreated control
[2]; RP3 plants, 28 days after treatment, 2 to 3 leaf stage, foramsulfuron 29, imazamox 140, simazine 1120 g ha^−1
  Annual bluegrass control RP3: 11%
[2]; RP4, aboveground dry biomass 28 days after treatment, foramsulfuron 29, imazamox 140, simazine 1120 g ha^-1
  Annual bluegrass biomass RP4: 41 % of nontreated control
[2]; RP4 plants, 28 days after treatment, 2 to 3 leaf stage, foramsulfuron 29, imazamox 140, simazine 1120 g ha^−1
  Annual bluegrass control RP4: 5%
[2]; RP5, aboveground dry biomass 28 days after treatment, foramsulfuron 29, imazamox 140, simazine 1120 g ha^-1
  Annual bluegrass biomass RP5: 62 % of nontreated control
[2]; RP5 plants, 28 days after treatment, 2 to 3 leaf stage, foramsulfuron 29, imazamox 140, simazine 1120 g ha^−1
  Annual bluegrass control RP5: 10%
[2]; RP6, aboveground dry biomass 28 days after treatment, foramsulfuron 29, imazamox 140, simazine 1120 g ha^-1
  Annual bluegrass biomass RP6: 49 % of nontreated control
[2]; RP6 plants, 28 days after treatment, 2 to 3 leaf stage, foramsulfuron 29, imazamox 140, simazine 1120 g ha^−1
  Annual bluegrass control RP6: 24%
[2]; RP7, aboveground dry biomass 28 days after treatment, foramsulfuron 29, imazamox 140, simazine 1120 g ha^-1
  Annual bluegrass biomass RP7: 52 % of nontreated control
[2]; RP7 plants, 28 days after treatment, 2 to 3 leaf stage, foramsulfuron 29, imazamox 140, simazine 1120 g ha^−1
  Annual bluegrass control RP7: 10%
[2]; RP8, aboveground dry biomass 28 days after treatment, foramsulfuron 29, imazamox 140, simazine 1120 g ha^-1
  Annual bluegrass biomass RP8: 51 % of nontreated control
[2]; RP8 plants, 28 days after treatment, 2 to 3 leaf stage, foramsulfuron 29, imazamox 140, simazine 1120 g ha^−1
  Annual bluegrass control RP8: 5%
[2]; susceptible (S) plants, 28 days after treatment, 2 to 3 leaf stage, foramsulfuron 29, imazamox 140, simazine 1120 g ha^−1
  Annual bluegrass control S: 93%
[2]; susceptible (S), aboveground dry biomass 28 days after treatment, foramsulfuron 29, imazamox 140, simazine 1120 g ha^-1
  Annual bluegrass biomass S: 0 % of nontreated control
